Assay results from patent US6451828B1, “Selective inhibition of glutaminase by bis-thiadiazoles” (priority 2000, dated 2002).

Assays:
Assay in all cases: Specificity: effect on mechanistically related enzyme
Assay type in all cases: biochemical
Details in all cases: at 30 μM (data not shown)
calpain 1 = target: T1, calpain 1 (Homo sapiens, UniProt P07384)
T1 sequence (P07384 1-714): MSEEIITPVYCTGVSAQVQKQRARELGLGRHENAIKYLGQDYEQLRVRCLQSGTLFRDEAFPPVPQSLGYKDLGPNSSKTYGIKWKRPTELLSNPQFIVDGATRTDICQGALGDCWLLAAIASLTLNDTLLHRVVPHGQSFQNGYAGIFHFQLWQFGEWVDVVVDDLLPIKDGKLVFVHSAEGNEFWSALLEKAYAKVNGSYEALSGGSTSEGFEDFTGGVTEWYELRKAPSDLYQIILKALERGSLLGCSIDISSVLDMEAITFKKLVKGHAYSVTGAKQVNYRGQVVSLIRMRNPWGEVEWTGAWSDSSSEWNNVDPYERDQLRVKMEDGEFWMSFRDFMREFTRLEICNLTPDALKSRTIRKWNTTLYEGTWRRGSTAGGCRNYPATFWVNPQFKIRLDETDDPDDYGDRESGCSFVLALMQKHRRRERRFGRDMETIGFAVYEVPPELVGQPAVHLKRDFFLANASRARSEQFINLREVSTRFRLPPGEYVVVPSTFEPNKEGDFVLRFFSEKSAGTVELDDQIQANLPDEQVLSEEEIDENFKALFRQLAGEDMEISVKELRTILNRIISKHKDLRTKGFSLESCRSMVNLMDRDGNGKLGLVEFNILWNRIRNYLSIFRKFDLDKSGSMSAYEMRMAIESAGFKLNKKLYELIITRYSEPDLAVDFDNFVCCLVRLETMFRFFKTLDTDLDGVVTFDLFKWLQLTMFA
T1 sequence (P04632 1-268 partner): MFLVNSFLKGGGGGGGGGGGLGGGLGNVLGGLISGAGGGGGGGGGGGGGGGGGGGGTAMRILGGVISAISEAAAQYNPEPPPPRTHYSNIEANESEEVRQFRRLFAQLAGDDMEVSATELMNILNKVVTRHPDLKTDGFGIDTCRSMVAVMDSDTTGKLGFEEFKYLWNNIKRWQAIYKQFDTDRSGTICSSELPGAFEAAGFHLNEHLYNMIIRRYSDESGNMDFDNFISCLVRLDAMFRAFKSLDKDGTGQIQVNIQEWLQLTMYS
Description: (§1) Specificity for glutaminase was evaluated at two levels. Compounds were evaluated for specific interactions with several thiol hydrolases (cathepsin B, caspase-9, calpain-1, and […]). These are cysteine proteases which are believed to function by a mechanisms similar to that of glutaminase. Compounds were also evaluated for effects on intracellular amino acids and nucleotides in CACO2 (intestinal epithelial) cells (Example 5), and for effects on amino acids in primary cultures of cerebellar neurons (granule cells) and astrocytes (Examples 6-7). These measurements reflect interactions with other glutamine utilizing enzymes involved in amino acid and nucleic acid biosynthesis and homeostasis. For example, a decrease in cytidine triphosphate (CTP) and an increase in uridine triphosphate (UTP) on treatment with DON (6-diazo-5-oxo-L-norleucine), a known nonselective antiglutamine affinity label, is indicative of inhibition of the activity of CTP synthetase, for which UTP is the substrate and CTP the product.

cathespin B = cathespin B (Homo sapiens, UniProt P07858)
Description: as §1

thrombin = thrombin (Homo sapiens, UniProt P00734)
Description: as §1

caspase 9 = target: T2, caspase 9 (Homo sapiens, UniProt P55211)
T2 sequence (P55211 1-416): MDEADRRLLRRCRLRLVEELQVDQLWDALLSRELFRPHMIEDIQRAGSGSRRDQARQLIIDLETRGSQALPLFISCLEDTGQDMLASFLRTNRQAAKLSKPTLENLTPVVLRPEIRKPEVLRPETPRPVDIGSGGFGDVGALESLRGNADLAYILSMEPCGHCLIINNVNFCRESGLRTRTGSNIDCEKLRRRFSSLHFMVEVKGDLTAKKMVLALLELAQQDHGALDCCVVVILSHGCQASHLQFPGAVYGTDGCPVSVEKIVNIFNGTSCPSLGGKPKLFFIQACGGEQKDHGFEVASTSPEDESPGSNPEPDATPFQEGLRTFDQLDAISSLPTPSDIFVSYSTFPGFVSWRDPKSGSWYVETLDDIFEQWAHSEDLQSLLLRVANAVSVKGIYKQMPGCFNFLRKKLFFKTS
Description: as §1

O=C(Cc1ccccc1)Nc1nnc(CCSCCc2nnc(NC(=O)Cc3ccccc3)s2)s1 [SNX-1770, bis-2′-[5-(phenylacetamido)-1,3,4-thiadiazol-2-yl]ethyl sulfide]
Nor did it have any effect: Effect on calpain 1 (calpain 1) | Effect on cathespin B (cathespin B) | Effect on thrombin (thrombin) | Effect on caspase 9 (caspase 9)
